Experiments:
Assay in all cases: relative viability (nuclei count vs DMSO), 5 days (fraction); higher = more cells survive
SK-MES-1 = tested on: SK-MES-1
How it was run: (§1)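 Values are medians from duplicate plates. Each reflects relative viability, defined as the nuclei count of treated wells over that of vehicle wells. Lung cancer cell lines in 1536-well plates were pin-tool dosed one day after seeding with one drug alone or with a fixed anchor-drug dose plus five library-drug doses (not always all listed) in √10 steps, then fixed, stained and imaged at 4× after 5 days.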

EKVX = tested on: EKVX
How it was run: as §1

CAL-12T = tested on: CAL-12T
How it was run: as §1

NCI-H2228 = tested on: NCI-H2228
How it was run: as §1

H3255 = tested on: H3255
How it was run: as §1

ABC-1 = tested on: ABC-1
How it was run: as §1

NCI-H460 = tested on: NCI-H460
How it was run: as §1

NCI-H2085 = tested on: NCI-H2085
How it was run: as §1

NCI-H322M = tested on: NCI-H322M
How it was run: as §1

HCC-366 = tested on: HCC-366
How it was run: as §1

EPLC-272H = tested on: EPLC-272H
How it was run: as §1

NCI-H2087 = tested on: NCI-H2087
How it was run: as §1

NCI-H441 = tested on: NCI-H441
How it was run: as §1

NCI-H1792 = tested on: NCI-H1792
How it was run: as §1

ChaGo-K-1 = tested on: ChaGo-K-1
How it was run: as §1

COR-L 105 = tested on: COR-L 105
How it was run: as §1

NCI-H1975 = tested on: NCI-H1975
How it was run: as §1

HCC-827 = tested on: HCC-827
How it was run: as §1

NCI-H2009 = tested on: NCI-H2009
How it was run: as §1

NCI-H1355 = tested on: NCI-H1355
How it was run: as §1

NCI-H1993 = tested on: NCI-H1993
How it was run: as §1

`CN1CCN(CCOc2cc(OC3CCOCC3)c3c(Nc4c(Cl)ccc5c4OCO5)ncnc3c2)CC1` [Saracatinib] + C[C@@H](Oc1cc(-c2cnn(C3CCNCC3)c2)cnc1N)c1c(Cl)ccc(F)c1Cl [Crizotinib] (partner 1 µM) gave a relative viability (SK-MES-1; first compound 0.02 µM) of 1.05, a relative viability (SK-MES-1; first compound 0.2 µM) of 0.858 and a relative viability (SK-MES-1; first compound 0.6325 µM) of 0.825. The relative viability (SK-MES-1; first compound 2 µM) was 0.517, the relative viability (EKVX; first compound 0.02 µM) was 0.927 and the relative viability (EKVX; first compound 0.2 µM) was 0.865. The relative viability (EKVX; first compound 0.6325 µM) was 0.596, the relative viability (EKVX; first compound 2 µM) was 0.302 and the relative viability (CAL-12T; first compound 0.02 µM) was 0.649. The relative viability (CAL-12T; first compound 0.2 µM) was 0.522, the relative viability (CAL-12T; first compound 0.6325 µM) was 0.746 and the relative viability (CAL-12T; first compound 2 µM) was 0.367. For the same compound, the relative viability (NCI-H2228; first compound 0.02 µM) was 0.477, the relative viability (NCI-H2228; first compound 0.2 µM) was 0.326 and the relative viability (NCI-H2228; first compound 0.6325 µM) was 0.306. It also gave a relative viability (NCI-H2228; first compound 2 µM) of 0.213, a relative viability (H3255; first compound 0.02 µM) of 0.865 and a relative viability (H3255; first compound 0.2 µM) of 0.952. It also gave a relative viability (H3255; first compound 0.6325 µM) of 0.664, a relative viability (H3255; first compound 2 µM) of 0.269 and a relative viability (ABC-1; first compound 0.02 µM) of 1.1. The relative viability (ABC-1; first compound 0.2 µM) was 1.06, the relative viability (ABC-1; first compound 0.6325 µM) was 0.918 and the relative viability (ABC-1; first compound 2 µM) was 0.705. The relative viability (NCI-H460; first compound 0.02 µM) was 0.97, the relative viability (NCI-H460; first compound 0.2 µM) was 0.501 and the relative viability (NCI-H460; first compound 0.6325 µM) was 0.696. For the same compound, the relative viability (NCI-H460; first compound 2 µM) was 0.566, the relative viability (NCI-H2085; first compound 0.02 µM) was 0.763 and the relative viability (NCI-H2085; first compound 0.2 µM) was 0.761. For the same compound, the relative viability (NCI-H2085; first compound 0.6325 µM) was 0.766, the relative viability (NCI-H2085; first compound 2 µM) was 0.755 and the relative viability (NCI-H322M; first compound 0.02 µM) was 0.971. For the same compound, the relative viability (NCI-H322M; first compound 0.2 µM) was 0.831, the relative viability (NCI-H322M; first compound 0.6325 µM) was 0.916 and the relative viability (NCI-H322M; first compound 2 µM) was 0.6. It also gave a relative viability (HCC-366; first compound 0.02 µM) of 0.547, a relative viability (HCC-366; first compound 0.6325 µM) of 0.435 and a relative viability (HCC-366; first compound 2 µM) of 0.182. For the same compound, the relative viability (EPLC-272H; first compound 0.02 µM) was 0.96, the relative viability (EPLC-272H; first compound 0.2 µM) was 0.826 and the relative viability (EPLC-272H; first compound 0.6325 µM) was 0.779. For the same compound, the relative viability (EPLC-272H; first compound 2 µM) was 0.729, the relative viability (NCI-H2087; first compound 0.02 µM) was 0.993 and the relative viability (NCI-H2087; first compound 0.2 µM) was 0.697. The relative viability (NCI-H2087; first compound 0.6325 µM) was 1.07, the relative viability (NCI-H2087; first compound 2 µM) was 1.02 and the relative viability (NCI-H441; first compound 0.02 µM) was 0.95. For the same compound, the relative viability (NCI-H441; first compound 0.2 µM) was 0.601, the relative viability (NCI-H441; first compound 0.6325 µM) was 0.798 and the relative viability (NCI-H441; first compound 2 µM) was 0.646. It also gave a relative viability (NCI-H1792; first compound 0.02 µM) of 0.94, a relative viability (NCI-H1792; first compound 0.2 µM) of 0.922 and a relative viability (NCI-H1792; first compound 0.6325 µM) of 1.15. The relative viability (NCI-H1792; first compound 2 µM) was 0.684, the relative viability (ChaGo-K-1; first compound 0.02 µM) was 1.08 and the relative viability (ChaGo-K-1; first compound 0.2 µM) was 0.906. For the same compound, the relative viability (ChaGo-K-1; first compound 0.6325 µM) was 1.1, the relative viability (ChaGo-K-1; first compound 2 µM) was 0.809 and the relative viability (COR-L 105; first compound 0.02 µM) was 0.881. The relative viability (COR-L 105; first compound 0.2 µM) was 0.763, the relative viability (COR-L 105; first compound 0.6325 µM) was 0.459 and the relative viability (COR-L 105; first compound 2 µM) was 0.252. For the same compound, the relative viability (NCI-H1975; first compound 0.02 µM) was 1.02, the relative viability (NCI-H1975; first compound 0.6325 µM) was 0.823 and the relative viability (NCI-H1975; first compound 2 µM) was 0.515. The relative viability (HCC-827; first compound 0.02 µM) was 0.943, the relative viability (HCC-827; first compound 0.2 µM) was 0.452 and the relative viability (HCC-827; first compound 0.6325 µM) was 0.247. For the same compound, the relative viability (HCC-827; first compound 2 µM) was 0.193, the relative viability (NCI-H2009; first compound 0.02 µM) was 1.03 and the relative viability (NCI-H2009; first compound 0.2 µM) was 0.756. For the same compound, the relative viability (NCI-H2009; first compound 0.6325 µM) was 0.896, the relative viability (NCI-H2009; first compound 2 µM) was 0.691 and the relative viability (NCI-H1355; first compound 0.02 µM) was 1.06. The relative viability (NCI-H1355; first compound 0.2 µM) was 1.13, the relative viability (NCI-H1355; first compound 0.6325 µM) was 1.08 and the relative viability (NCI-H1355; first compound 2 µM) was 0.925. It also gave a relative viability (NCI-H1993; first compound 0.02 µM) of 0.832, a relative viability (NCI-H1993; first compound 0.2 µM) of 0.594 and a relative viability (NCI-H1993; first compound 2 µM) of 0.589.
